Data: PubChem BioAssay (NCI)
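Exposure lasted 48 hours, with cells grown in 96-well plates and compounds tested at five concentrations. GI50 is the concentration that inhibits growth by half. TGI denotes the concentration required for complete inhibition of growth.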

Legend:
Assay in all cases: NCI tumour cell line growth inhibition, 48 h
[1] = test system: M14 melanoma
[2] = test system: ACHN renal
[3] = test system: SR leukemia
[4] = test system: UO-31 renal
[5] = test system: COLO 205 colon
[6] = test system: MDA-MB-231 breast
[7] = test system: HCT-116 colon
[8] = test system: OVCAR-4 ovarian
[9] = test system: NCI/ADR-RES ovarian
[10] = test system: HCC-2998 colon

Molecule `Cc1n(Cc2ccc3ccccc3c2)cc[n+]1Cc1ccc2ccccc2c1` has a GI50 [1] of 1.12 µM, a TGI [1] of 3.46 µM and a GI50 [2] of 10.9 µM. The TGI [2] was 23.8 µM, the GI50 [3] was 0.552 µM and the TGI [3] was 2.47 µM. The GI50 [4] was 9.26 µM, the TGI [4] was 22 µM and the GI50 [5] was 0.369 µM. For the same molecule, the TGI [5] was 1.59 µM, the GI50 [6] was 1.03 µM and the TGI [6] was 2.43 µM. For the same molecule, the GI50 [7] was 1.07 µM, the TGI [7] was 4.4 µM and the GI50 [8] was 0.381 µM. For the same molecule, the TGI [8] was 6.36 µM, the GI50 [9] was 41.3 µM and the TGI [9] was greater than 100 µM. It also gave a GI50 [10] of 0.717 µM and a TGI [10] of 2.27 µM.

In the case of `O=C(O)c1ccccc1-c1ccccc1C(=O)Nc1ccc2c(c1)Cc1cc(F)ccc1-2`, the TGI [1] is reported as 40 µM, the TGI [2] is reported as 64.2 µM and the TGI [3] is reported as 48.9 µM. For the same molecule, the TGI [4] was greater than 100 µM, the TGI [5] was 32.7 µM and the TGI [6] was 83.2 µM. The TGI [7] was 33 µM, the TGI [8] was greater than 100 µM and the TGI [9] was greater than 100 µM. For the same molecule, the TGI [10] was 33.8 µM.

`Cc1c(C2Nc3ccccc3C2C)[nH]c2ccccc12` (stereo not given) gave a GI50 [1] of 15.3 µM, a TGI [1] of 38.7 µM and a GI50 [2] of 10.1 µM. The TGI [2] was 23.1 µM, the GI50 [3] was 0.738 µM and the TGI [3] was 26.3 µM. It also gave a GI50 [4] of 6.27 µM, a TGI [4] of 22.1 µM and a GI50 [5] of 10.5 µM. It also gave a TGI [5] of 22.5 µM, a GI50 [6] of 5.37 µM and a TGI [6] of 21.4 µM. The GI50 [7] was 0.83 µM, the TGI [7] was 23.5 µM and the GI50 [8] was 6.17 µM. The TGI [8] was 21.6 µM, the GI50 [9] was 10.4 µM and the TGI [9] was 30.7 µM. For the same molecule, the GI50 [10] was 12.6 µM and the TGI [10] was 26.6 µM.

In the case of `CCN1C(=O)N(CC)C2C1NC(=S)N2/N=C/C=C/c1cccs1` (stereo not given), the GI50 [1] is reported as 0.241 µM, the TGI [1] is reported as 17.6 µM and the GI50 [2] is reported as 0.804 µM. It also gave a TGI [2] greater than 100 µM, a GI50 [3] of 0.217 µM and a TGI [3] greater than 38.9 µM. It also gave a GI50 [4] of 0.923 µM, a TGI [4] greater than 100 µM and a GI50 [5] of 0.267 µM. For the same molecule, the TGI [5] was 1.17 µM, the GI50 [6] was 0.648 µM and the TGI [6] was greater than 100 µM. It also gave a GI50 [7] of 0.404 µM, a TGI [7] greater than 100 µM and a GI50 [8] of 1.32 µM. For the same molecule, the TGI [8] was greater than 100 µM, the GI50 [9] was 0.296 µM and the TGI [9] was greater than 100 µM. The GI50 [10] was 0.709 µM and the TGI [10] was greater than 100 µM.

With `COc1ccc(-n2cc(-c3ccc(Cl)c(Cl)c3)nc2SCc2cccc(C#N)c2)cc1` the GI50 [1] was 48.2 µM, the TGI [1] was greater than 100 µM and the GI50 [2] was 30.4 µM. The TGI [2] was greater than 100 µM, the GI50 [3] was greater than 100 µM and the TGI [3] was greater than 100 µM. It also gave a GI50 [4] of 35.2 µM, a TGI [4] greater than 100 µM and a GI50 [5] of 51.7 µM. It also gave a TGI [5] greater than 100 µM, a GI50 [6] of 68 µM and a TGI [6] greater than 100 µM. It also gave a GI50 [7] of 4.55 µM, a TGI [7] greater than 100 µM and a GI50 [8] of 11.9 µM. The TGI [8] was greater than 100 µM, the GI50 [9] was 23 µM and the TGI [9] was greater than 100 µM. It also gave a GI50 [10] of 79.1 µM and a TGI [10] greater than 100 µM.

`Cc1ccc(N(CSc2ccc(Cl)cc2)CSc2ccc(Cl)cc2)cc1` was tested, and the GI50 [1] was 1.48 µM, the TGI [1] was 4.45 µM and the GI50 [2] was 2.11 µM. For the same molecule, the TGI [2] was 15.7 µM, the GI50 [3] was 1.04 µM and the TGI [3] was 4.86 µM. It also gave a GI50 [4] of 0.717 µM, a TGI [4] of 2.75 µM and a GI50 [5] of 1.84 µM. For the same molecule, the TGI [5] was 3.38 µM, the GI50 [6] was 0.404 µM and the TGI [6] was 2.5 µM. For the same molecule, the GI50 [7] was 1.52 µM, the TGI [7] was 10.9 µM and the GI50 [8] was 2.78 µM. For the same molecule, the TGI [8] was 31.4 µM, the GI50 [9] was 1.38 µM and the TGI [9] was 9.04 µM. For the same molecule, the GI50 [10] was 2.57 µM and the TGI [10] was 11.7 µM.

`Cc1ccc(Nc2nc(N)c(C(=O)c3ccc(C#N)cc3)s2)cc1` showed a GI50 [1] of 0.308 µM, a TGI [1] greater than 100 µM and a GI50 [2] of 0.587 µM. The TGI [2] was greater than 80.5 µM, the GI50 [3] was 0.0544 µM and the TGI [3] was greater than 100 µM. The GI50 [4] was 0.644 µM, the TGI [4] was greater than 100 µM and the GI50 [5] was 0.279 µM. The TGI [5] was 6.64 µM, the GI50 [6] was 1.01 µM and the TGI [6] was greater than 100 µM. It also gave a GI50 [7] of 0.241 µM, a TGI [7] of 6.74 µM and a GI50 [8] of 3.86 µM. For the same molecule, the TGI [8] was greater than 68.4 µM, the GI50 [9] was 0.196 µM and the TGI [9] was 36.3 µM. The GI50 [10] was 1.59 µM and the TGI [10] was greater than 53.9 µM.

In the case of `O=C1/C(=C\c2cccn2Cc2ccccc2)c2ccccc2N1c1c(Cl)cccc1Cl`, the GI50 [1] is reported as greater than 100 µM, the TGI [1] is reported as greater than 100 µM and the GI50 [2] is reported as 7.9 µM. It also gave a TGI [2] greater than 100 µM, a GI50 [3] greater than 73.4 µM and a TGI [3] greater than 100 µM. It also gave a GI50 [4] of 3.89 µM, a TGI [4] greater than 100 µM and a GI50 [5] of 1.36 µM. The TGI [5] was 6.26 µM, the GI50 [6] was 5.83 µM and the TGI [6] was greater than 100 µM. The GI50 [7] was 7.36 µM, the TGI [7] was greater than 100 µM and the GI50 [8] was 0.196 µM. For the same molecule, the TGI [8] was greater than 60.4 µM, the GI50 [9] was greater than 100 µM and the TGI [9] was greater than 100 µM. For the same molecule, the GI50 [10] was 1.83 µM and the TGI [10] was greater than 100 µM.

`CCOC(=O)C1=C(C)N(N)C(=S)NC1c1ccc(C)cc1` (stereo not given) gave a GI50 [1] of 27.5 µM, a TGI [1] greater than 100 µM and a GI50 [2] of 22.6 µM. It also gave a TGI [2] greater than 100 µM, a GI50 [3] of 28.3 µM and a TGI [3] greater than 100 µM. It also gave a GI50 [4] of 23.5 µM, a TGI [4] greater than 100 µM and a GI50 [5] of 33.5 µM. For the same molecule, the TGI [5] was greater than 100 µM, the GI50 [6] was 1.2 µM and the TGI [6] was greater than 100 µM. The GI50 [7] was 65.3 µM, the TGI [7] was greater than 100 µM and the GI50 [8] was 66 µM. The TGI [8] was greater than 100 µM, the GI50 [9] was 61.9 µM and the TGI [9] was greater than 100 µM. The GI50 [10] was 0.811 µM and the TGI [10] was 27.1 µM.

For `COC(COC(=O)N1CCN(C=O)CC1)C1=C(N2CC2)C(=O)C(C)=C(N2CC2)C1=O` (stereo not given), the TGI [1] was 1.34 µM, the TGI [2] was 0.424 µM and the TGI [3] was less than 0.011 µM. The TGI [4] was 3.19 µM, the TGI [5] was 0.897 µM and the TGI [6] was 8.16 µM. For the same molecule, the TGI [7] was 1.55 µM, the TGI [8] was 2.13 µM and the TGI [9] was 31.9 µM. For the same molecule, the TGI [10] was 38.1 µM.

With `O=c1[nH]c2cc(Cl)ccc2n1C1CCN(CCCC(c2ccc(F)cc2)c2ccc(F)cc2)CC1` the GI50 [1] was 1.55 µM, the TGI [1] was 3.05 µM and the GI50 [2] was 1.54 µM. For the same molecule, the TGI [2] was 2.87 µM, the GI50 [3] was 2.25 µM and the TGI [3] was 8.36 µM. For the same molecule, the GI50 [4] was 1 µM, the TGI [4] was 2.38 µM and the GI50 [5] was 1.23 µM. The TGI [5] was 2.6 µM, the GI50 [6] was 1.68 µM and the TGI [6] was 3.12 µM. It also gave a GI50 [7] of 1.46 µM, a TGI [7] of 2.87 µM and a GI50 [8] of 1.51 µM. The TGI [8] was 2.9 µM, the GI50 [9] was 1.74 µM and the TGI [9] was 3.61 µM. It also gave a GI50 [10] of 1.87 µM and a TGI [10] of 3.49 µM.

`Cc1c[n+](Cc2ccc3ccccc3c2)cn1Cc1ccc2ccccc2c1` gave a GI50 [1] of 1.58 µM, a TGI [1] of 3.66 µM and a GI50 [2] of 5.41 µM. It also gave a TGI [2] of 19.4 µM, a GI50 [3] of 1.46 µM and a TGI [3] of 3.58 µM. It also gave a GI50 [4] of 5.47 µM, a TGI [4] of 20.4 µM and a GI50 [5] of 1.12 µM. For the same molecule, the TGI [5] was 2.62 µM, the GI50 [6] was 1.54 µM and the TGI [6] was 3.24 µM. For the same molecule, the GI50 [7] was 1.39 µM, the TGI [7] was 2.7 µM and the GI50 [8] was 0.583 µM. It also gave a TGI [8] of 2.35 µM, a GI50 [9] greater than 100 µM and a TGI [9] greater than 100 µM. For the same molecule, the GI50 [10] was 1.34 µM and the TGI [10] was 2.83 µM.

In the case of `CC(=O)Oc1ccccc1C(=O)N=C1[Se]CCCN1C(=O)c1ccccc1OC(C)=O`, the GI50 [1] is reported as 1.86 µM, the TGI [1] is reported as 4.68 µM and the GI50 [2] is reported as 2.3 µM. For the same molecule, the TGI [2] was 4.79 µM, the GI50 [3] was 2.44 µM and the TGI [3] was 9.17 µM. For the same molecule, the GI50 [4] was 1.33 µM, the TGI [4] was 4.25 µM and the GI50 [5] was 3.08 µM. For the same molecule, the TGI [5] was 10.1 µM, the GI50 [6] was 2.22 µM and the TGI [6] was 5.02 µM. The GI50 [7] was 2.1 µM, the TGI [7] was 5.95 µM and the GI50 [8] was 1.93 µM. For the same molecule, the TGI [8] was 5.57 µM, the GI50 [9] was 2.92 µM and the TGI [9] was 8.09 µM. The GI50 [10] was 3.42 µM and the TGI [10] was 15.6 µM.
